Test [1] addresses T1, Lb proteinase (Foot-and-mouth disease virus serotype O, UniProt P03305).
Test [2] deals with T1, Lb proteinase. The format is biochemical, FMDV.
In the next test the test system is L proteinase. To be noted: cited from earlier work.

Here are results for five compounds from US6180385A (priority 1996, dated 2001).

T1 sequence (P03305 29-201 limits assumed): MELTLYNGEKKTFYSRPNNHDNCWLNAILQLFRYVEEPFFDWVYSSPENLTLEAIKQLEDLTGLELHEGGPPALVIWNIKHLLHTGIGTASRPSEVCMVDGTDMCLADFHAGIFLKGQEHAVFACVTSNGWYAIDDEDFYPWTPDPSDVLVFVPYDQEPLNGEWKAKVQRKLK

On to “G R T T L S T R*G P P R G G P G [p220-4]”, for which, on Lb proteinase [1], the “cleavage of peptide in the absence of SDS (controls)” value (shortened to “cleavage of peptide … (controls)”) is recorded as “efficient cleavage” and the “peptide cleaved by Lb (qualitative)” value is recorded as “cleaved”.

Turning to “T P S F A N L G*R T T L S T R G [p220-6]”, at Lb proteinase [1], the “FMDV Lb cleavage site on the peptide (* indicates cleavage site)” value is recorded as “G*R”, the “cleavage of peptide … (controls)” value was “efficient cleavage” and the “peptide cleaved by Lb (qualitative)” value is given as “cleaved”.

“Ac-T*R*P I I T T A G P S D M Y V H-NH2 [Peptide P89]”: on Lb proteinase [1], the “cleavage of peptide … (controls)” value is “efficient cleavage” and the “peptide cleaved by Lb (qualitative)” value is “cleaved”.

`CCCCCCCCCCCCOS(=O)(=O)O` [SDS]: at Lb proteinase [2], the “cleavage of peptide LVP4-1 by Lb proteinase in the presence of inhibitor” value is listed as “No cleavage”; the “inhibition of cleavage of peptides P89, p220-4 and p220-6 by Lb proteinase” value is recorded as “complete inhibition”.

Consider `CC(C)CC(NC(=O)C1OC1C(=O)O)C(=O)NCCCCN=C(N)N` (stereo not shown) [Peptide E64, E64], for which, in the test with L proteinase, the “effect on the L proteinase” value is on record as “inhibition”.
